The values that follow come from paper PMC7582727, “Functional Impact of BeKm-1, a High-Affinity hERG Blocker, on Cardiomyocytes Derived from Human-Induced Pluripotent Stem Cells” (International Journal of Molecular Sciences, 2020).

Each structure is given as a SMILES string. Positions of bridges follow the written chain, without caps; N, C: chain ends. Residues, ends and D or L forms follow the SMILES beside them.

One series has as its system hiPS-CMs monolayers. The series is described as follows: Contraction (impedance) of hiPS-CM monolayers (CardioExcyte 96). The series is classed as cell-based, human. As for the experimental part: The results described above on the excitability alterations of hiPS-CMs indicate that BeKm-1 should also impair excitation–contraction coupling (ECC) in these cells. In spontaneously beating cardiomyocytes, the toxin should impact the contractility in a coherent manner with spontaneous APs and CaT. We investigated the contractions using the CardioExcyte 96 system. […] Coherent with the proarrhythmic properties of 2 nM of BeKm-1, both the mean SD1, the standard deviation of instantaneous contraction-to-contraction interval variability, and SD2, the continuous long-term interval variability, increased by 2- and 1.7-fold, respectively (Figure S5I).
(§1) hiPS-CMs: All experiments were performed on the human-induced pluripotent stem cell (hiPSC) clone C2a that has been previously characterized, including cardiac differentiation and electrophysiology data. Cells were expanded on stem cell-qualified matrigel-coated plates (0.05 mg/mL; BD Bioscience, Le Pont de Claix, France) and cultured in StemMACS iPS-BREW XF medium (Miltenyi Biotec, Paris, France). Cells were passaged every […] using Gentle Cell Dissociation Buffer (StemCell Technologies, Grenoble, France). Prior to differentiation, cells were cultured as a monolayer in StemMACS iPS-brew supplemented with 1 × Y-27632 Rho-associated, coiled-coil containing protein kinase (ROCK) inhibitor (StemCell Technologies, Grenoble, France). When hiPSCs reached proper confluence, they were differentiated into cardiomyocytes using previously described « Matrix sandwich » protocol. At day 20 ± 1 of differentiation, beating cardiomyocytes were manually dissected and isolated from non-beating cells. Briefly, cardiomyocytes were washed with phosphate-buffered saline (PBS) and treated with TrypLE Express (10x) (Thermo Fisher Scientific, Illkirch-Graffenstaden, France) for 5 min at 37 °C. The enzyme was inactivated by adding RPMI1640 medium containing 20% (vol/vol) KnockOut Serum Replacement (KSR) (Thermo Fisher Scientific, Illkirch-Graffenstaden, France). The supernatant was removed, and cells were suspended in RPMI1640 medium containing 20% (vol/vol) KSR and ROCK inhibitor. Then, the cells were plated on specific supports suitable for functional assessments.
The beating properties and the electrical field potentials of hiPS-CMs were evaluated with a CardioExcyte96 system. After dissociation, hiPS-CMs were seeded on NSP-96 Sensor Plates (Nanion Technologies, Munich, Germany) at a density of 40,000 viable cells per well. Sensor plates were previously coated with 10 µg/mL fibronectin for 1 h at 37 °C. The cells were maintained at 37 °C, and the medium was replaced every 2 days for 1 week. On the day of beating assessment, the whole medium was replaced 4 h prior to experiments, and cells were incubated at 37 °C onto the CardioExcyte96 system. Meanwhile, cells were monitored to ensure the full stabilization of beating parameters until BeKm-1 was tested at various concentrations ([…]). Tfall and Trise were determined as the time between 10% and 90% of contraction or relaxation, respectively. Pulse width (PWx) was determined as the time corresponding to the width of the signal at 90% of relaxation. Electric field potentials (EFPs) were recorded using CardioExcyte96 system. For both contraction and EFPs, 10 sequences of 30 s of acquisition were analyzed before and after BeKm-1 addition. The CardioExcyte system is best to analyze the kinetic parameters of the contractile properties of hiPS-CMs but has intrinsic limitations to assess properly variations in contractile force.

Series [1] has as its system hiPS-CMs (clone C2a, ventricular-like). It counts as cell-based, human. As for the experimental part: Although the effect of BeKm-1 on APD90 was expected from a block of hERG channels, the other effects (i.e., membrane depolarization, reduction in AP frequency, and decrease of maximal upstroke velocity) are most likely a secondary consequence of the absence of IK1 in hiPS-CMs due to incomplete maturation level of these cells during the differentiation process (a recurrent problem in differentiating hiPS into cardiomyocytes). The 5 nM concentration of BeKm-1 was chosen to spare a fraction of the hERG channels in these cells. Therefore, we also tested a higher concentration (100 nM) in order to affect all hERG channels. […] This observation is coherent with the fact that a stronger IK1 current would be needed in hiPS-CMs to maintain a more negative membrane potential typical for CMs. […] In this technique, a current density of 2.8 pA/pF is injected in order to successfully reach an RMP value of −80 mV. […] Representative APs, paced at a constant cycling length of 700 ms with IK1, are shown before and after the application of 5 nM BeKm-1 (Figure 3A,B). […] Logically, these APs were excluded from further analysis of AP parameters. IK1 in silico injection efficiently allowed for setting a real resting membrane potential (RMP) at −80 mV in these hiPS-CMs, causing the cessation of spontaneous APs (not shown). As a result of IK1 taking the relay over IKr, there was no effect of 5 nM BeKm-1 on RMP (Figure 3C). […] The average prolongation of APD90 and variability is also detailed cell by cell (Figure S3).
as §1
Manual patch clamp: Single-cell dissociated hiPS-CMs were plated at low density on matrigel-coated 35 mm Petri dishes (Nunc from Thermo Fisher Scientific, Illkirch-Graffenstaden, France). Electrophysiological experiments were performed 12 to 14 days after dissociation. APs were recorded in the current-clamp mode, using the amphotericin-B-perforated patch-clamp technique. All experiments were conducted at 37 °C. APs were recorded either at basal state (spontaneous APs) or using the dynamic patch-clamp method to electronically mimic the expression of the inward rectifier potassium current, IK1 [23, 24]. The resting membrane potential (RMP) was set to −80 ± 5 mV by injecting 2 to 2.8 pA/pF in silico IK1 density. This level of current was set so that about 80% of the ventricular-like hiPS-CMs could reach these physiological RMP values. […]

The mark [2] stands for this setting: 2 nM vs vehicle, n = 8 monolayers.
Where [3] appears, read: 5 nM, dynamic clamp, paced every 700 ms.

`CC[C@H](C)[C@H](NC(=O)[C@H](CC(=O)O)NC(=O)[C@@H](NC(=O)[C@@H]1CCCN1C(=O)[C@@H](N)CCCNC(=N)N)[C@@H](C)O)C(=O)N[C@@H](CCCCN)C(=O)N[C@H]1CSSC[C@@H]2NC(=O)[C@H](CCCNC(=N)N)NC(=O)CNC(=O)[C@H](CC(N)=O)NC(=O)[C@H]([C@@H](C)O)NC(=O)[C@H](CCCCN)NC(=O)CNC(=O)[C@H](Cc3ccccc3)NC(=O)[C@H](CCCNC(=N)N)NC(=O)[C@H](CO)NC(=O)[C@H](CCCCN)NC(=O)[C@@H]3CSSC[C@@H](C(=O)N[C@@H](Cc4ccccc4)C(=O)O)NC(=O)[C@H](CC(=O)O)NC(=O)[C@H](CSSC[C@H](NC(=O)[C@H](CCC(N)=O)NC(=O)[C@H](Cc4ccc(O)cc4)NC(=O)[C@H](CO)NC(=O)[C@H](CCC(=O)O)NC(=O)[C@H](CO)NC1=O)C(=O)N[C@@H](Cc1ccccc1)C(=O)N1CCC[C@H]1C(=O)N[C@@H](C(C)C)C(=O)N3)NC(=O)[C@H](Cc1ccccc1)NC(=O)CNC(=O)[C@H](CC(N)=O)NC(=O)[C@H](C(C)C)NC2=O` [BeKm-1] (H-RPTDIKCSESYQCFPVCKSRFGKTNGRCVNGFCDCF-OH; disulfide 7-28, 13-33, 17-35 (inferred); N-terminus and C-terminus assumed): in the series with hiPS-CMs monolayers (2 nM), the contraction amplitude result was “not significantly different from the control”; the “pulse width PW95” value is “significant alteration”; the “pulse widths PW30, PW70 and PW90” value was “none of the pulse widths (PW) PW30, PW70, and PW90 parameters were significantly altered”. In addition, in the series on hiPS-CMs monolayers (2 nM vs vehicle), the interbeat interval increase was 16.7%, the “slowing of relaxation phase” value turned out to be 19.8% and the “slowing of rising phase of contraction” value was 1.29 -fold. For the same molecule, in the series on hiPS-CMs monolayers (setting [2]), the “SD1 increase (instantaneous contraction-to-contraction interval variability)” value is listed as 2 -fold and the “SD2 increase (continuous long-term interval variability)” value is 1.7 -fold. Further, the interbeat interval in the series with hiPS-CMs monolayers (2 nM, 37 °C, vehicle 2.03 ± 0.1 s, n = 8, mean ± SEM) is given as 2.37 ± 0.2 s. Also, in the series on hiPS-CMs monolayers (2 nM, 37 °C, vehicle 203.5 ± 11.3 ms, n = 8, mean ± SEM), the “duration of rising phase of contraction (Trise)” value turned out to be 262.6 ± 16.9 ms. Besides, the “duration of relaxation phase (Tfall)” value in the series with hiPS-CMs monolayers (2 nM, 37 °C, vehicle 719.2 ± 45.8 ms, n = 8, mean ± SEM) turned out to be 862.1 ± 82.0 ms. The “interbeat interval and its variability” value in the series with hiPS-CMs monolayers (2 nM, Poincaré plot) was “significantly increased”. The APD90 prolongation in series [1] (5 nM vs vehicle, average, dynamic clamp) was found to be 29%. The “resting membrane potential (RMP)” value in series [1] (5 nM, RMP set to −80 mV by IK1 injection, paced every 700 ms) is recorded as “no effect”. The APD90 in series [1] (5 nM, dynamic clamp, cycle length 700 ms, 37 °C, vehicle 121.9 ± 11.0 ms, n = 10, mean ± SEM) stood at 156.7 ± 16.9 ms. Further, in series [1] (setting [3]), the AP overshoot result is given as “no significant effect”; the “APD30 and APD50” value was “did not alter”; the maximal upstroke velocity entry was “no significant effect”. In addition, in series [1] (5 nM, dynamic clamp, Poincaré plot), the APD90 variability result is listed as “greater APD90 variability”.
